According to patent US20250333397A1 (REMIX THERAPEUTICS INC., priority 2021, published 2025):
Like-named read-outs stand apart in the source and are kept apart here.

Legend:
Type in all cases: cell-based, human
[1] = system: HTT mRNA; assay: RT-qPCR splicing assay, HTT canonical (CJ) and alternative (AJ) junction mRNA; details: for AC50: read-out: HTT AJ (AC50, increase in AJ mRNA)
Procedure, shortened: (§1)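 CJ and AJ junction levels were quantified by RT-qPCR on lysates, with housekeeper ΔCt normalized to DMSO (ΔΔCt) and expressed as RQ = 2^(-ΔΔCt). Before lysis, K562 or A673 cells had 24 h compound exposure at 37 °C. Dosing was 11 points, 3-fold, from 10 uM final, with DMSO at most 0.25%.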

[2] = system: MYB mRNA; assay: RT-qPCR splicing assay, MYB canonical (CJ) and alternative (AJ) junction mRNA; details: for AC50: read-out: MYB AJ (AC50, increase in AJ mRNA)
Procedure, shortened: as §1

[3] = system: SMN2 mRNA; assay: RT-qPCR splicing assay panel, SMN2 canonical junction (CJ) mRNA
Procedure, shortened: as §1

[4] = system: Target C mRNA; assay: RT-qPCR splicing assay panel, Target C canonical junction (CJ) mRNA; details: Homo sapiens
Procedure, shortened: as §1

[5] = Homo sapiens, 24 h, Table 3A, A673 or K562 cells, 24 h treatment
[6] = Homo sapiens, 24 h, Table 3A, A673 or K562 cells, 24 h treatment, read-out: HTT CJ (IC50, decrease in CJ mRNA)
[7] = Homo sapiens, canonical junction (CJ) mRNA, RT-qPCR panel, Table 4A, read-out: HTT, decrease in CJ mRNA levels, IC50
[8] = Homo sapiens, 24 h, Table 3A, A673 or K562 cells, 24 h treatment, read-out: MYB CJ (IC50, decrease in CJ mRNA)
[9] = Homo sapiens, canonical junction (CJ) mRNA, RT-qPCR panel, Table 4A, read-out: MYB, decrease in CJ mRNA levels, IC50
[10] = Homo sapiens, canonical junction (CJ) mRNA, RT-qPCR panel, Table 4A, read-out: SMN2, decrease in CJ mRNA levels, IC50
[11] = canonical junction (CJ) mRNA, RT-qPCR panel, Table 4A, read-out: Target C, decrease in CJ mRNA levels, IC50
[12] = Homo sapiens, 24 h, Table 3B, A673 or K562 cells, 24 h treatment
[13] = Table 3A, A673 or K562 cells, 24 h treatment

For `COc1cc(-c2ccc(-c3ccc(N4CC[C@@H](NC(C)(C)C)C4)nn3)c(O)c2)cnn1` [Compound 209, 2-{6-[(3R)-3-(tert-butylamino)pyrrolidin-1-yl]pyridazin-3-yl}-5-(6-methoxypyridazin-4-yl)phenol], the AC50 [1, 5] was under 100 nM, the IC50 [1, 6] was under 100 nM and the IC50 [1, 7] was under 100 nM. It also gave an AC50 [2, 5] of under 100 nM, an IC50 [2, 8] of under 100 nM and an IC50 [2, 9] of under 100 nM. It also gave an IC50 [3, 10] of under 100 nM and an IC50 [4, 11] of under 100 nM.

Work on `Cc1cn(-c2cc(O)c(-c3ccc(N4CC[C@@H](NC5CCC5)C4)nn3)cc2F)cn1` [Compound 226, 2-{6-[(3R)-3-(cyclobutylamino)pyrrolidin-1-yl]pyridazin-3-yl}-4-fluoro-5-(4-methylimidazol-1-yl)phenol] yielded an AC50 [1, 5] of 100 to 1000 nM, an IC50 [1, 6] of under 100 nM and an IC50 [1, 7] of under 100 nM. For the same compound, the AC50 [2, 5] was 100 to 1000 nM, the IC50 [2, 8] was 100 to 1000 nM and the IC50 [2, 9] was 100 to 1000 nM. The IC50 [3, 10] was under 100 nM and the IC50 [4, 11] was 100 to 1000 nM.

`CNc1cc(-c2ccc(-c3ccc(N4CCC(NCC5CC5)C4)nn3)c(O)c2)ncn1` (centres unmarked) [Compound 434] was tested, and the AC50 [1, 5] was under 100 nM, the IC50 [1, 6] was under 100 nM and the IC50 [1, 7] was under 100 nM. The AC50 [2, 5] was 100 to 1000 nM, the IC50 [2, 8] was 100 to 1000 nM and the IC50 [2, 9] was 100 to 1000 nM. It also gave an IC50 [3, 10] of under 100 nM and an IC50 [4, 11] of 100 to 1000 nM.

With `Cc1ncc(-c2cc(O)c(-c3ccc(N4CC[C@@H](NCC5CCC5)C4)nn3)cc2F)s1` [Compound 395] the AC50 [1, 5] was 100 to 1000 nM, the IC50 [1, 6] was under 100 nM and the IC50 [1, 7] was under 100 nM. For the same compound, the AC50 [2, 5] was 100 to 1000 nM, the IC50 [2, 8] was 100 to 1000 nM and the IC50 [2, 9] was 100 to 1000 nM. The IC50 [3, 10] was under 100 nM and the IC50 [4, 11] was 100 to 1000 nM.

For `Cc1nc2cc(O)c(-c3ccc(N4CC[C@@H](N(C)C(C)(C)C)C4)nn3)cc2o1` [Compound 859], the AC50 [1, 12] was 1000 to 10000 nM, the IC50 ([1]; Homo sapiens, 24 h, Table 3B, A673 or K562 cells, 24 h treatment, read-out: HTT CJ (IC50, decrease in CJ mRNA)) was 1000 to 10000 nM and the IC50 ([1]; Homo sapiens, Table 4B, gene panel, read-out: HTT (IC50, decrease in CJ mRNA levels)) was 1000 to 10000 nM. It also gave an AC50 [2, 12] of 1000 to 10000 nM, an IC50 ([2]; Homo sapiens, 24 h, Table 3B, A673 or K562 cells, 24 h treatment, read-out: MYB CJ (IC50, decrease in CJ mRNA)) of 1000 to 10000 nM and an IC50 ([2]; Homo sapiens, Table 4B, gene panel, read-out: MYB (IC50, decrease in CJ mRNA levels)) of 1000 to 10000 nM. It also gave an IC50 ([3]; Homo sapiens, Table 4B, gene panel, read-out: SMN2 (IC50, decrease in CJ mRNA levels)) of under 100 nM and an IC50 ([4]; Table 4B, gene panel, read-out: Target C (IC50, decrease in CJ mRNA levels)) of 1000 to 10000 nM.

`CC1(NC2CCN(c3ccc(-c4ccc(-c5cn[nH]c5)cc4O)nn3)C2)CC1` (centres unmarked) [Compound 107, 2-(6-{3-[(1-methylcyclopropyl)amino]pyrrolidin-1-yl}pyridazin-3-yl)-5-(1H-pyrazol-4-yl)phenol] showed an AC50 [1, 5] of under 100 nM, an IC50 [1, 6] of under 100 nM and an IC50 [1, 7] of under 100 nM. The AC50 [2, 5] was under 100 nM, the IC50 [2, 8] was under 100 nM and the IC50 [2, 9] was under 100 nM. It also gave an IC50 [3, 10] of under 100 nM and an IC50 [4, 11] of under 100 nM.

Work on `COc1cc(-c2ccc(-c3cc(C#N)c(OC4CC(C)(C)NC(C)(C)C4)nn3)c(O)c2)cnn1` [Compound 424] yielded an AC50 [1, 5] of 100 to 1000 nM, an IC50 [1, 6] of 100 to 1000 nM and an IC50 [1, 7] of 100 to 1000 nM. The AC50 [2, 5] was 1000 to 10000 nM, the IC50 [2, 8] was 1000 to 10000 nM and the IC50 [2, 9] was 1000 to 10000 nM. The IC50 [3, 10] was 100 to 1000 nM and the IC50 [4, 11] was 1000 to 10000 nM.

`CCOc1cc(-c2ccc(-c3ccc(N4CC[C@@H](NC5CCC5)C4)nn3)c(O)c2)cnn1` [Compound 301] showed an AC50 [1, 5] of over 10000 nM, an IC50 [1, 6] of over 10000 nM and an IC50 [1, 7] of over 10000 nM. For the same compound, the AC50 [2, 5] was over 10000 nM, the IC50 [2, 8] was over 10000 nM and the IC50 [2, 9] was over 10000 nM. For the same compound, the IC50 [3, 10] was 1000 to 10000 nM and the IC50 [4, 11] was over 10000 nM.

`CN(C)c1cc(-c2ccc(-c3ccc(N4CCC(NC5CCC5)C4)nn3)c(O)c2)cnn1` (centres unmarked) [Compound 409] was tested, and the AC50 [1, 5] was over 10000 nM, the IC50 [1, 6] was over 10000 nM and the IC50 [1, 7] was over 10000 nM. The AC50 [2, 5] was over 10000 nM, the IC50 [2, 8] was over 10000 nM and the IC50 [2, 9] was over 10000 nM. For the same compound, the IC50 [3, 10] was over 10000 nM and the IC50 [4, 11] was over 10000 nM.

In the case of `Cc1nnc(-c2cc(O)c(-c3ccc(N4CC[C@@H](NCC5CC5)C4)nn3)cc2F)s1` [Compound 402], the AC50 [1, 5] is reported as 100 to 1000 nM, the IC50 [1, 6] is reported as 100 to 1000 nM and the IC50 [1, 7] is reported as 100 to 1000 nM. For the same compound, the AC50 [2, 5] was 1000 to 10000 nM, the IC50 [2, 8] was 1000 to 10000 nM and the IC50 [2, 9] was 1000 to 10000 nM. For the same compound, the IC50 [3, 10] was 100 to 1000 nM and the IC50 [4, 11] was 1000 to 10000 nM.

In the case of `COc1cc(-c2ccc(-c3ccc(N4CC[C@H](N(C)C(C)(C)C)C4)nn3)c(O)c2)cnn1` [Compound 337, 2-{6-[(3S)-3-[tert-butyl(methyl)amino]pyrrolidin-1-yl]pyridazin-3-yl}-5-(6-methoxypyridazin-4-yl)phenol], the AC50 [1, 5] is reported as under 100 nM, the IC50 [1, 6] is reported as under 100 nM and the IC50 [1, 7] is reported as under 100 nM. The AC50 [2, 5] was under 100 nM, the IC50 [2, 8] was under 100 nM and the IC50 [2, 9] was under 100 nM. It also gave an IC50 [3, 10] of under 100 nM and an IC50 [4, 11] of under 100 nM.

`COc1cc(-c2ccc(-c3ccc(N4CCC(NC5CC6(CCC6)C5)C4)nn3)c(O)c2)cnn1` (centres unmarked) [Compound 353, 5-(6-methoxypyridazin-4-yl)-2-[6-(3-{spiro[3.3]heptan-2-ylamino}pyrrolidin-1-yl)pyridazin-3-yl]phenol] was tested, and the AC50 [1, 5] was 100 to 1000 nM, the IC50 [1, 6] was 100 to 1000 nM and the IC50 [1, 7] was 100 to 1000 nM. For the same compound, the AC50 [2, 5] was 1000 to 10000 nM, the IC50 [2, 8] was 1000 to 10000 nM and the IC50 [2, 9] was 1000 to 10000 nM. For the same compound, the IC50 [3, 10] was under 100 nM and the IC50 [4, 11] was 100 to 1000 nM.

`Cc1nc(-c2ccc(-c3ccc(N4CCC(NC5CCC5)C4)nn3)c(O)c2)cs1` (centres unmarked) [Compound 412] was tested, and the AC50 [1, 13] was over 10000 nM, the IC50 ([1]; Table 3A, A673 or K562 cells, 24 h treatment, read-out: HTT CJ (IC50, decrease in CJ mRNA)) was over 10000 nM and the IC50 ([1]; canonical junction (CJ) mRNA, RT-qPCR panel, Table 4A, read-out: HTT, decrease in CJ mRNA levels, IC50) was over 10000 nM. It also gave an AC50 [2, 13] of over 10000 nM, an IC50 ([2]; Table 3A, A673 or K562 cells, 24 h treatment, read-out: MYB CJ (IC50, decrease in CJ mRNA)) of over 10000 nM and an IC50 ([2]; canonical junction (CJ) mRNA, RT-qPCR panel, Table 4A, read-out: MYB, decrease in CJ mRNA levels, IC50) of over 10000 nM. It also gave an IC50 ([3]; canonical junction (CJ) mRNA, RT-qPCR panel, Table 4A, read-out: SMN2, decrease in CJ mRNA levels, IC50) of over 10000 nM and an IC50 [4, 11] of over 10000 nM.
